Counter-ions that a name gives are not always drawn.
Legend:
[1] = Solubility of the powder in water; type: physicochemical
[2] = Pharmacokinetics after administration of the subject combination; conditions: for Cmax relative to the peak level of bupropion: after administration of the subject combination; for apparent elimination half-life (metabolite): subject combination

SMILES | solubility in water [1] | dose proportionality of pharmacokinetics (AUC and Cmax) ([2]; co-administered with bupropion, steady state, dextromethorphan 30 to 60 mg, bupropion 75 to 150 mg) | Cmax when administered with food ([2]; subject combination with food) | Cmax relative to the peak level of bupropion [2] | apparent elimination half-life (metabolite) [2]
CC(NC(C)(C)C)C(=O)c1cccc(Cl)c1 (racemic) [Bupropion hydrochloride, (±)-1-(3-chlorophenyl)-2-[(1,1-dimethylethyl)amino]-1-propanone hydrochloride] | highly soluble in water | – | – | – | –
COc1ccc2c(c1)[C@]13CCCC[C@@H]1[C@H](C2)N(C)CC3 [dextromethorphan, reference compound] | – | nonlinear pharmacokinetics at steady state | unchanged | – | –
CC(NC(C)(C)C)C(O)c1cccc(Cl)c1 (stereo not drawn) [erythrohydroxybupropion] | – | – | – | approximately equal to | ~44 h
C[C@H]1NC(C)(C)CO[C@]1(O)c1cccc(Cl)c1 [hydroxybupropion] | – | – | – | approximately 14 times | approximately 35 hours
C[C@H](NC(C)(C)C)[C@@H](O)c1cccc(Cl)c1 [threohydroxybupropion] | – | – | – | about 5 times | ~33 h

Source: US20250281430A1, “BUPROPION AS A MODULATOR OF DRUG ACTIVITY” (ANTECIP BIOVENTURES II LLC, priority 2022, published 2025)
